{"source": "ChEMBL document CHEMBL3785075", "about": "“Novel Water-Soluble Amphotericin B-PEG Conjugates with Low Toxicity and Potent in Vivo Efficacy” (J Med Chem, 2016)", "key": {"[1]": {"assay": "Solubility of compound in saline by HPLC analysis", "assay_type": "physicochemical"}, "[2]": {"test_system": "Candida albicans", "assay": "Antifungal activity against Candida albicans after 48 hrs by CLSI-M27-A3 method", "assay_type": "functional"}, "[3]": {"test_system": "Pichia kudriavzevii", "assay": "Antifungal activity against Candida krusei after 48 hrs by CLSI-M27-A3 method", "assay_type": "functional"}, "[4]": {"test_system": "Aspergillus fumigatus", "assay": "Antifungal activity against Aspergillus fumigatus after 48 hrs by CLSI-M27-A3 method", "assay_type": "functional"}, "[5]": {"test_system": "Aspergillus niger", "assay": "Antifungal activity against Aspergillus niger after 48 hrs by CLSI-M27-A3 method", "assay_type": "functional"}, "[6]": {"test_system": "Aspergillus flavus", "assay": "Antifungal activity against Aspergillus flavus after 48 hrs by CLSI-M27-A3 method", "assay_type": "functional"}, "[7]": {"test_system": "Aspergillus terreus", "assay": "Antifungal activity against Aspergillus terreus after 48 hrs by CLSI-M27-A3 method", "assay_type": "functional"}, "[8]": {"test_system": "Rhizopus arrhizus", "assay": "Antifungal activity against Rhizopus oryzae after 48 hrs by CLSI-M27-A3 method", "assay_type": "functional"}, "[9]": {"test_system": "Candida albicans", "assay": "Antifungal activity against Candida albicans CBS 562 assessed as viable cells at 2 times MIC after 2 hrs by time kill analysis relative to control", "assay_type": "functional"}, "[10]": {"assay": "Toxicity against human RBC assessed as hemolytic activity at 6 ug/ml after 1 to 21 hrs", "assay_type": "cell-based", "conditions": "erythrocyte"}, "[11]": {"test_system": "MEF", "assay": "Cytotoxicity against mouse MEF cells assessed as cell viability after 24 hrs by MTT assay", "assay_type": "cell-based"}, "[12]": {"assay": "Toxicity in iv dosed ICR mouse", "assay_type": "organism-based", "conditions": "in vivo"}, "[13]": {"test_system": "Mus musculus", "assay": "Metabolic stability in ICR mouse assessed as hydrolysis at 1 mg/kg, iv after 24 hrs by HPLC analysis", "assay_type": "ADME, organism-based", "conditions": "in vivo"}, "[14]": {"test_system": "Mus musculus", "assay": "Metabolic stability in ICR mouse at 1 mg/kg, iv after 48 hrs by HPLC analysis", "assay_type": "ADME, organism-based", "conditions": "in vivo"}, "[15]": {"assay": "Elimination rate constant in ICR mouse at 1 mg/kg, iv by HPLC analysis", "assay_type": "ADME, organism-based", "conditions": "in vivo"}, "[16]": {"assay": "Elimination half life in ICR mouse at 1 mg/kg, iv by HPLC analysis", "assay_type": "ADME, organism-based", "conditions": "in vivo, read-out: beta t1/2 (converted)"}, "[17]": {"assay": "Volume of distribution in ICR mouse at 1 mg/kg, iv after 24 hrs by HPLC analysis", "assay_type": "ADME, organism-based", "conditions": "in vivo"}, "[18]": {"assay": "Clearance in ICR mouse at 1 mg/kg, iv after 24 hrs by HPLC analysis", "assay_type": "ADME, organism-based", "conditions": "in vivo"}, "[19]": {"test_system": "Mus musculus", "assay": "AUC(0 to 24 hrs) in ICR mouse at 1 mg/kg, iv after 24 hrs by HPLC analysis", "assay_type": "ADME, organism-based", "set-up": "dose 1 mg/kg, time < 24 hr, route intravenous", "conditions": "in vivo"}, "[20]": {"assay": "Mean residence time(0 to 24 hrs) in ICR mouse at 7.5 mg/kg, iv after 24 hrs by HPLC analysis", "assay_type": "ADME, organism-based", "conditions": "in vivo"}, "[21]": {"assay": "Fraction unbound in ICR mouse plasma by HPLC analysis", "assay_type": "ADME, cell-free"}, "[22]": {"test_system": "Candida albicans", "assay": "Antifungal activity against Candida albicans CBS 562 infected in ICR mouse assessed as increase in survival rate of animal at 1 mg/kg after 24 days", "assay_type": "functional, organism-based"}, "[23]": {"test_system": "Candida albicans", "assay": "Antifungal activity against Candida albicans CBS 562 infected in ICR mouse assessed as increase in survival rate of animal at 1.75 mg/kg after 24 days", "assay_type": "functional, organism-based"}, "[24]": {"test_system": "Candida albicans", "assay": "Antifungal activity against Candida albicans CBS 562 infected in ICR mouse assessed as increase in survival rate of animal at 3.5 mg/kg after 24 days", "assay_type": "functional, organism-based"}, "[25]": {"test_system": "Candida albicans", "assay": "Antifungal activity against Candida albicans CBS 562 infected in ICR mouse assessed as increase in survival rate of animal at 7 mg/kg after 24 days", "assay_type": "functional, organism-based"}, "[26]": {"test_system": "Candida albicans", "assay": "Antifungal activity against Candida albicans CBS 562 infected in ICR mouse assessed as fungal burden in mouse kidney at 1 mg/kg after 24 hrs", "assay_type": "functional, organism-based"}, "[27]": {"test_system": "Candida albicans", "assay": "Antifungal activity against Candida albicans CBS 562 infected in ICR mouse assessed as fungal burden in mouse kidney at 1.75 mg/kg after 24 hrs", "assay_type": "functional, organism-based"}, "[28]": {"test_system": "Candida albicans", "assay": "Antifungal activity against Candida albicans CBS 562 infected in ICR mouse assessed as fungal burden in mouse kidney at 3.5 mg/kg after 24 hrs", "assay_type": "functional, organism-based"}, "[29]": {"test_system": "Candida albicans", "assay": "Antifungal activity against Candida albicans CBS 562 infected in ICR mouse assessed as fungal burden in mouse kidney at 7 mg/kg after 24 hrs", "assay_type": "functional, organism-based"}, "[30]": {"test_system": "Candida albicans", "assay": "Antifungal activity against Candida albicans CBS 562 infected in ICR mouse assessed as fungal burden in mouse spleen at 1 mg/kg after 24 hrs", "assay_type": "functional, organism-based"}, "[31]": {"test_system": "Candida albicans", "assay": "Antifungal activity against Candida albicans CBS 562 infected in ICR mouse assessed as fungal burden in mouse spleen at 1.75 mg/kg after 24 hrs", "assay_type": "functional, organism-based"}, "[32]": {"test_system": "Candida albicans", "assay": "Antifungal activity against Candida albicans CBS 562 infected in ICR mouse assessed as fungal burden in mouse spleen at 3.5 mg/kg after 24 hrs", "assay_type": "functional, organism-based"}, "[33]": {"test_system": "Candida albicans", "assay": "Antifungal activity against Candida albicans CBS 562 infected in ICR mouse assessed as fungal burden in mouse spleen at 7 mg/kg after 24 hrs", "assay_type": "functional, organism-based"}}, "note": "Calls of active or inactive are those of the source. The calls are words filed in the database; no cut-off is given here.", "data": [{"smiles": "C[C@@H]1[C@H](O)[C@@H](C)/C=C/C=C/C=C/C=C/C=C/C=C/C=C/[C@H](O[C@@H]2O[C@H](C)[C@@H](O)[C@H](N)[C@@H]2O)C[C@@H]2O[C@](O)(C[C@@H](O)C[C@@H](O)[C@H](O)CC[C@@H](O)C[C@@H](O)CC(=O)O[C@H]1C)C[C@H](O)[C@H]2C(=O)O", "note": "[AMPHOTERICIN B]", "values": [{"measurement": "solubility", "setting": "[1]", "value": "< 1", "unit": "µg/mL"}, {"measurement": "MFC", "setting": "[2]", "value": 0.5, "unit": "µg/mL"}, {"measurement": "MIC", "setting": "[2]", "value": 0.25, "unit": "µg/mL"}, {"measurement": "MFC", "setting": "[3]", "value": 1, "unit": "µg/mL"}, {"measurement": "MIC", "setting": "[3]", "value": 0.5, "unit": "µg/mL"}, {"measurement": "MFC", "setting": "[4]", "value": 0.5, "unit": "µg/mL"}, {"measurement": "MIC", "setting": "[4]", "value": 0.25, "unit": "µg/mL"}, {"measurement": "MFC", "setting": "[5]", "value": 0.5, "unit": "µg/mL"}, {"measurement": "MIC", "setting": "[5]", "value": 0.5, "unit": "µg/mL"}, {"measurement": "MFC", "setting": "[6]", "value": 0.5, "unit": "µg/mL"}, {"measurement": "MIC", "setting": "[6]", "value": 0.5, "unit": "µg/mL"}, {"measurement": "MFC", "setting": "[7]", "value": 4, "unit": "µg/mL"}, {"measurement": "MIC", "setting": "[7]", "value": 2, "unit": "µg/mL"}, {"measurement": "MFC", "setting": "[8]", "value": 250, "unit": "µg/mL"}, {"measurement": "MIC", "setting": "[8]", "value": 0.25, "unit": "µg/mL"}, {"measurement": "Activity", "setting": "[9]", "value": 100, "unit": "%"}, {"measurement": "Activity", "setting": "[10]", "value": "Toxic"}, {"measurement": "IC50", "setting": "[11]", "value": 6.6, "unit": "µg/mL"}, {"measurement": "MTD", "setting": "[12]", "value": 1.1, "unit": "mg/kg"}, {"measurement": "Stability", "setting": "[13]", "value": "Stable"}, {"measurement": "Stability", "setting": "[14]", "value": "Unstable"}, {"measurement": "k el", "setting": "[15]", "value": "1.19e-05", "unit": "s⁻¹"}, {"measurement": "half-life", "setting": "[16]", "value": 16, "unit": "h"}, {"measurement": "Vd", "setting": "[17]", "value": 0.006, "unit": "L"}, {"measurement": "clearance", "setting": "[18]", "value": 0.00417, "unit": "mL/min"}, {"measurement": "AUC", "setting": "[19]", "value": 63983, "unit": "ng·h/mL"}, {"measurement": "MRT last", "setting": "[20]", "value": 9.66, "unit": "h"}, {"measurement": "fraction unbound", "setting": "[21]", "value": 0.11}, {"measurement": "Activity", "setting": "[22]", "value": "Active"}, {"measurement": "Activity", "setting": "[23]", "value": "Active"}, {"measurement": "Activity", "setting": "[24]", "value": "Active"}, {"measurement": "Activity", "setting": "[25]", "value": "Active"}, {"measurement": "Activity", "setting": "[26]", "value": "Active"}, {"measurement": "Activity", "setting": "[27]", "value": "Active"}, {"measurement": "Activity", "setting": "[28]", "value": "Active"}, {"measurement": "Activity", "setting": "[29]", "value": "Active"}, {"measurement": "Activity", "setting": "[30]", "value": "Active"}, {"measurement": "Activity", "setting": "[31]", "value": "Active"}, {"measurement": "Activity", "setting": "[32]", "value": "Active"}, {"measurement": "Activity", "setting": "[33]", "value": "Active"}]}]}
